For the experiment, the target named is T1, GCK-GKRP interaction (recombinant human GST-GCK and FLAG-GKRP) (Homo sapiens, UniProt P35557+Q14397).
T1 construct: made in house
T1 sequence (P35557 1-465): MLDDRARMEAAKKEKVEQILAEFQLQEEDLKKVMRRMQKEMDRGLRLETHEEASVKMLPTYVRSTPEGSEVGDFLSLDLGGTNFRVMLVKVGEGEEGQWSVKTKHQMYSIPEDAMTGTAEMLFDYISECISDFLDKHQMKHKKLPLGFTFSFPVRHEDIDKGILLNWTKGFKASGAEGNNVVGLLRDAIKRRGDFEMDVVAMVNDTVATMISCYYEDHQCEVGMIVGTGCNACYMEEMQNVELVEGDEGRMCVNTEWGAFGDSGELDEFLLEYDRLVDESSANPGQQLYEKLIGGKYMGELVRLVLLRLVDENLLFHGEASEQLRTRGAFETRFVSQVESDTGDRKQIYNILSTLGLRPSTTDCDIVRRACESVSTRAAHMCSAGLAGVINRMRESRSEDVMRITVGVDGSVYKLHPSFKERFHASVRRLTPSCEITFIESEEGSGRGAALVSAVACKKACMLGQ
T1 sequence (Q14397 1-625): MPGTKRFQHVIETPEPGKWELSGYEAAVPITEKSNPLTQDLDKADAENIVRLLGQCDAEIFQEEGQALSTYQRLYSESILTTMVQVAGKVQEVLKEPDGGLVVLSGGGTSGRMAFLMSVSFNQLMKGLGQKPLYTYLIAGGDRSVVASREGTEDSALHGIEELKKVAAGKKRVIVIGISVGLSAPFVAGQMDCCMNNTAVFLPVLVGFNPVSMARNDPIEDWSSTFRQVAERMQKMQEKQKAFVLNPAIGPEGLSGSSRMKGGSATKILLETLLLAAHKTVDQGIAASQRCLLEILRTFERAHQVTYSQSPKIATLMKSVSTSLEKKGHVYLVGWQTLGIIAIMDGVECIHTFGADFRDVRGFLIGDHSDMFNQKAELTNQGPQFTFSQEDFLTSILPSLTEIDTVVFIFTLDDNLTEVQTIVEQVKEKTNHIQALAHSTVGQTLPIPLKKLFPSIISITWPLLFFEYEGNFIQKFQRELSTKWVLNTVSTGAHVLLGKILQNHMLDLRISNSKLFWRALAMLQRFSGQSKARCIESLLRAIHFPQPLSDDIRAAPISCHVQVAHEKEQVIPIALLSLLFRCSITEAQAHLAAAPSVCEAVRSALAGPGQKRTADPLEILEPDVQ
Briefly: HTRF assay of the GCK-GKRP protein-protein interaction. Type of experiment: binding. Particulars: 5 nM GCK, 5 nM GKRP. Here is the method: Homogeneous time-resolved fluorescence (HTRF) technology (Cisbio Bioassays, Bedford, MA, USA) was utilized for antibody-based FRET measurement of the GCK-GKRP protein-protein interaction. Recombinant human GST-GCK and FLAG-GKRP were mixed in an HTRF assay buffer containing 2 mM MgCl2, 25 mM KCl, 25 mM HEPES, 1 mM DTT, 0.1% Tween-20, and 0.025% BSA (all buffer components Sigma-Aldrich). The pH was adjusted to 7.1 by drop-wise addition of 10 N NaOH. […] For assays in 1536-well plate format, the two reaction mixes were dispensed using an Aurora Discovery BioRAPTR Flying Reagent Dispenser (BioRAPTR; Beckman Coulter, Inc., Brea, CA, USA) (3 µl/well for protein-containing buffer; 1 µl/well for detection antibodies) into white 1536-well solid-bottom medium binding plates (Greiner Bio-One, Monroe, NC, USA). […] For the LOPAC^1280 library screen, column 1 was all components with DMSO (maximum signal) and column 3 was no GKRP with DMSO (minimum signal). These two control columns were used for data normalization. The final HTS protocol is in Table S1, and the data have been deposited in PubChem (AID 743207).
S6P, F1P, and glucose were dissolved in water; GKAs were dissolved in DMSO.
The assay was validated using a range (0–150 nM) of GCK and GKRP concentrations at manufacturer-recommended detection antibody concentrations ( Figure 2A ). Fluorescence was measured immediately upon mixing, and every 30 minutes thereafter for a total of 240 minutes. The plate was covered and incubated at room temperature throughout the course of the experiment.
The assay was miniaturized to 1536-well plate format and, concurrently, specificity of detection was validated by using known modulators of the GCK-GKRP interaction.
The EC80 value represents a compromise between the desire for large enough signal enhancement and the need to maintain a binding level that is not too saturated so that it can be outcompeted by compounds of interest. Additionally, this approach enables detection of specific competitors of S6P, which would likely be acting on GKRP as desired, and not on GCK. […] Both glucose and GKAs interfere with the binding of GKRP to GCK and decrease GKRP inhibition, [44], [45], while F1P binds to GKRP and is competitive with respect to S6P [46].

We go through four compounds from publication PMC3929664, “A Panel of Diverse Assays to Interrogate the Interaction between Glucokinase and Glucokinase Regulatory Protein, Two Vital Proteins in Human Disease” (PLoS ONE, 2014).

Molecules are shown by their SMILES. Counter-ions that a name gives are not always drawn.

For `O=C(O)C1=CC(=C(c2ccc(O)c(C(=O)O)c2)c2ccc(O)c(C(=O)O)c2)C=CC1=O` [ATA, aurintricarboxylic acid], the LOPAC1280 screen outcome (2 µM S6P) is reported as “inhibitors of the GCK-GKRP interaction”.
Consider `O=C(COP(=O)(O)O)[C@@H](O)[C@H](O)[C@H](O)CO` [F1P, fructose 1-phosphate], for which, where the note is “2 µM S6P, mean ± SD, read-out: IC50 (inhibition of GCK-GKRP interaction, HTRF signal)”, the concentration for half-maximal inhibition (IC50) amounted to 70 ± 5.4 µM.
`O=P(O)(O)OC[C@@H](O)[C@@H](O)[C@H](O)[C@@H](O)CO` [S6P, sorbitol 6-phosphate]: the 80% effect concentration (EC80) came to 2 µM. For the setting “1536-well, mean ± SD, read-out: EC50 (enhancement of HTRF signal)”, the EC50 worked out at 0.4 ± 0.08 µM.
In the case of `Cc1ccc(C(=O)Nc2ccc(S(=O)(=O)O)c3cc(S(=O)(=O)O)cc(S(=O)(=O)O)c23)cc1NC(=O)c1cccc(NC(=O)Nc2cccc(C(=O)Nc3cc(C(=O)Nc4ccc(S(=O)(=O)O)c5cc(S(=O)(=O)O)cc(S(=O)(=O)O)c45)ccc3C)c2)c1` [suramin sodium salt], the LOPAC1280 screen outcome (2 µM S6P) is “inhibitors of the GCK-GKRP interaction”.
